Experimental data reported in PubChem BioAssay (NCI).
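Five compound concentrations were applied to cells in 96-well plates for 48 hours; endpoints were derived by simple linear interpolation of the resulting dose-response curve. GI50 marks 50% less growth. TGI denotes the concentration required for complete inhibition of growth.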

Tests used:
Assay in all cases: NCI-60 cell line screen, 48 h
SW-620 colon = tested on: SW-620 colon
SF-268 CNS = tested on: SF-268 CNS
SF-539 CNS = tested on: SF-539 CNS
SK-OV-3 ovarian = tested on: SK-OV-3 ovarian
PC-3 prostate = tested on: PC-3 prostate
MOLT-4 leukemia = tested on: MOLT-4 leukemia
U251 CNS = tested on: U251 CNS
MDA-MB-435 = tested on: MDA-MB-435
NCI-H226 lung = tested on: NCI-H226 lung
IGROV1 ovarian = tested on: IGROV1 ovarian
OVCAR-8 ovarian = tested on: OVCAR-8 ovarian
SNB-19 CNS = tested on: SNB-19 CNS
MCF7 breast = tested on: MCF7 breast
HCT-15 colon = tested on: HCT-15 colon
RXF 393 renal = tested on: RXF 393 renal
LOX IMVI melanoma = tested on: LOX IMVI melanoma
OVCAR-5 ovarian = tested on: OVCAR-5 ovarian
SF-295 CNS = tested on: SF-295 CNS
CAKI-1 renal = tested on: CAKI-1 renal
SK-MEL-28 melanoma = tested on: SK-MEL-28 melanoma
DU-145 prostate = tested on: DU-145 prostate
OVCAR-3 ovarian = tested on: OVCAR-3 ovarian
UO-31 renal = tested on: UO-31 renal
NCI-H23 lung = tested on: NCI-H23 lung
NCI-H460 lung = tested on: NCI-H460 lung
K-562 leukemia = tested on: K-562 leukemia
MDA-MB-231 breast = tested on: MDA-MB-231 breast
BT-549 breast = tested on: BT-549 breast
TK-10 renal = tested on: TK-10 renal
SR leukemia = tested on: SR leukemia
SN12C renal = tested on: SN12C renal
786-0 renal = tested on: 786-0 renal
UACC-257 melanoma = tested on: UACC-257 melanoma
EKVX NSCLC = tested on: EKVX NSCLC
KM12 colon = tested on: KM12 colon
HOP-92 NSCLC = tested on: HOP-92 NSCLC
RPMI-8226 leukemia = tested on: RPMI-8226 leukemia
COLO 205 colon = tested on: COLO 205 colon
SK-MEL-5 melanoma = tested on: SK-MEL-5 melanoma
SK-MEL-2 melanoma = tested on: SK-MEL-2 melanoma
HCT-116 colon = tested on: HCT-116 colon
HS 578T breast = tested on: HS 578T breast
NCI-H522 lung = tested on: NCI-H522 lung
HOP-62 NSCLC = tested on: HOP-62 NSCLC
OVCAR-4 ovarian = tested on: OVCAR-4 ovarian
ACHN renal = tested on: ACHN renal
A549 NSCLC = tested on: A549 NSCLC
UACC-62 melanoma = tested on: UACC-62 melanoma
HL-60(TB) leukemia = tested on: HL-60(TB) leukemia
M14 melanoma = tested on: M14 melanoma
NCI/ADR-RES ovarian = tested on: NCI/ADR-RES ovarian
SNB-75 CNS = tested on: SNB-75 CNS
T-47D breast = tested on: T-47D breast
HT29 colon = tested on: HT29 colon
CCRF-CEM leukemia = tested on: CCRF-CEM leukemia

## COc1ccc(-c2c(C#N)c(N)nc3c2COc2ccc(F)cc2-3)cc1OC
SW-620 colon
  GI50: 9.21 µM
  TGI: > 100 µM
SF-268 CNS
  GI50: 15.8 µM
  TGI: 56.4 µM
SF-539 CNS
  GI50: 3.38 µM
  TGI: 11 µM
SK-OV-3 ovarian
  GI50: 8.44 µM
  TGI: 36.8 µM
PC-3 prostate
  GI50: 17.1 µM
  TGI: > 100 µM
MOLT-4 leukemia
  GI50: > 100 µM
  TGI: > 100 µM
U251 CNS
  GI50: 10.3 µM
  TGI: 22.7 µM
MDA-MB-435
  GI50: 10.7 µM
  TGI: 37.4 µM
NCI-H226 lung
  GI50: 4.54 µM
  TGI: 20 µM
IGROV1 ovarian
  GI50: 8.88 µM
  TGI: 65.1 µM
OVCAR-8 ovarian
  GI50: 3.62 µM
  TGI: 13.2 µM
SNB-19 CNS
  GI50: 4.37 µM
  TGI: 23.7 µM
MCF7 breast
  GI50: 17.6 µM
  TGI: > 100 µM
HCT-15 colon
  GI50: 8.29 µM
  TGI: 52.9 µM
RXF 393 renal
  GI50: 20.3 µM
  TGI: 51.6 µM
LOX IMVI melanoma
  GI50: 2.29 µM
  TGI: 9.84 µM
OVCAR-5 ovarian
  GI50: 17.2 µM
  TGI: 33.6 µM
SF-295 CNS
  GI50: 3.27 µM
  TGI: 10.9 µM
CAKI-1 renal
  GI50: 2.18 µM
  TGI: 8.15 µM
SK-MEL-28 melanoma
  GI50: 29.9 µM
  TGI: > 100 µM
DU-145 prostate
  GI50: 8.14 µM
  TGI: 23.9 µM
OVCAR-3 ovarian
  GI50: 2.21 µM
  TGI: 6.41 µM
UO-31 renal
  GI50: 17.3 µM
  TGI: 57.9 µM
NCI-H23 lung
  GI50: 14.1 µM
  TGI: 30.5 µM
NCI-H460 lung
  GI50: 9.03 µM
  TGI: > 100 µM
K-562 leukemia
  GI50: 53.6 µM
  TGI: > 100 µM
MDA-MB-231 breast
  GI50: 2.53 µM
  TGI: 9.63 µM
BT-549 breast
  GI50: 10.1 µM
  TGI: 26.5 µM
TK-10 renal
  GI50: 3.35 µM
  TGI: 24 µM
SR leukemia
  GI50: 2.15 µM
  TGI: > 100 µM
SN12C renal
  GI50: 6.22 µM
  TGI: 20.9 µM
786-0 renal
  GI50: 16.9 µM
  TGI: 46.2 µM
UACC-257 melanoma
  GI50: 18.9 µM
  TGI: 60.5 µM
EKVX NSCLC
  GI50: 4.91 µM
  TGI: 24.8 µM
KM12 colon
  GI50: 5.83 µM
  TGI: > 100 µM
HOP-92 NSCLC
  GI50: 18 µM
  TGI: > 100 µM
RPMI-8226 leukemia
  GI50: 6.61 µM
  TGI: > 100 µM
COLO 205 colon
  GI50: 5.79 µM
  TGI: > 100 µM
SK-MEL-5 melanoma
  GI50: 12 µM
  TGI: 37.5 µM
SK-MEL-2 melanoma
  GI50: 34.5 µM
  TGI: > 100 µM
HCT-116 colon
  GI50: 6.66 µM
  TGI: 37.3 µM
HS 578T breast
  GI50: 7.55 µM
  TGI: 38.5 µM
NCI-H522 lung
  GI50: 18.9 µM
  TGI: > 100 µM
HOP-62 NSCLC
  GI50: 14.7 µM
  TGI: 39 µM
OVCAR-4 ovarian
  GI50: 6.82 µM
  TGI: 63.7 µM
ACHN renal
  GI50: 1.4 µM
  TGI: 5.44 µM
A549 NSCLC
  GI50: 3.81 µM
  TGI: 14.2 µM
UACC-62 melanoma
  GI50: 7.99 µM
  TGI: 23 µM
HL-60(TB) leukemia
  GI50: 23.2 µM
  TGI: 92.4 µM
M14 melanoma
  GI50: 22 µM
  TGI: 98.9 µM
NCI/ADR-RES ovarian
  GI50: 17.4 µM
  TGI: 42.2 µM

## CC[C@]1(Cc2ccc(OC)c(OC)c2)[C@@H]2C[C@@H](C(=O)OC)ON2O[C@H](OC2CCCC2(c2ccccc2)c2ccccc2)[C@@H]1OC(C)=O (some centres undefined)
SW-620 colon
  TGI: > 100 µM
SF-268 CNS
  TGI: > 100 µM
SK-OV-3 ovarian
  TGI: > 100 µM
MOLT-4 leukemia
  TGI: > 100 µM
U251 CNS
  TGI: > 100 µM
MDA-MB-435
  TGI: > 100 µM
NCI-H226 lung
  TGI: > 100 µM
IGROV1 ovarian
  TGI: > 100 µM
OVCAR-8 ovarian
  TGI: > 100 µM
SNB-19 CNS
  TGI: > 100 µM
MCF7 breast
  TGI: > 100 µM
SNB-75 CNS
  TGI: > 100 µM
HCT-15 colon
  TGI: > 100 µM
RXF 393 renal
  TGI: > 100 µM
LOX IMVI melanoma
  TGI: > 100 µM
OVCAR-5 ovarian
  TGI: > 100 µM
SF-295 CNS
  TGI: > 100 µM
CAKI-1 renal
  TGI: > 100 µM
SK-MEL-28 melanoma
  TGI: > 100 µM
DU-145 prostate
  TGI: > 100 µM
OVCAR-3 ovarian
  TGI: > 100 µM
UO-31 renal
  TGI: > 100 µM
NCI-H23 lung
  TGI: > 100 µM
NCI-H460 lung
  TGI: > 100 µM
K-562 leukemia
  TGI: > 100 µM
MDA-MB-231 breast
  TGI: > 100 µM
BT-549 breast
  TGI: > 100 µM
TK-10 renal
  TGI: > 100 µM
SR leukemia
  TGI: > 100 µM
SN12C renal
  TGI: > 100 µM
786-0 renal
  TGI: > 100 µM
UACC-257 melanoma
  TGI: > 100 µM
EKVX NSCLC
  TGI: > 100 µM
KM12 colon
  TGI: > 100 µM
COLO 205 colon
  TGI: > 100 µM
SK-MEL-5 melanoma
  TGI: > 100 µM
SK-MEL-2 melanoma
  TGI: > 100 µM
HCT-116 colon
  TGI: > 100 µM
HOP-62 NSCLC
  TGI: > 100 µM
ACHN renal
  TGI: > 100 µM
A549 NSCLC
  TGI: > 100 µM
T-47D breast
  TGI: > 100 µM
HT29 colon
  TGI: > 100 µM
CCRF-CEM leukemia
  TGI: > 100 µM
UACC-62 melanoma
  TGI: > 100 µM
M14 melanoma
  TGI: > 100 µM
NCI/ADR-RES ovarian
  TGI: > 100 µM
